From patent US9783510B2, “Small molecule mediated transcriptional induction of E-cadherin” (Vanderbilt University, priority 2014, dated 2017)

Legend:
[1] = test system: E-cadherin mRNA in H520 cells; assay: qPCR of E-cadherin specific mRNA, H520 cells; assay type: cell-based; conditions: H520, 10 μM, 6 hours post-treatment, relative to DMSO
[2] = test system: E-cadherin expression in SW620inv colon cancer cells; assay: Quantitative in-cell Western (ICW), E-cadherin restoration in SW620inv cells; assay type: cell-based; conditions: 24 hours, 3 biological replicates
Experimental: SW620inv cells were used for ICW analysis as described (Stoops, S. L., et al. (2011) ACS Chemical Biology 6, 452-465).
SW620 cells (ATCC p92) were grown in RPMI+10% FBS+P/S to sub-confluence. The cells were washed with PBS, trypsinized, and re-suspended in serum-free RPMI at a concentration of one million cells/mL. The cells were then added to the upper chamber of 24 mm transwell (Costar#3428) that had been coated with 400 μL of 2.5 mg/mL matrigel (BD Biosciences). One milliliter of 10% FBS+P/S was added to the lower chamber. The cells were incubated at 37° C. for 72 hours in order to allow the cells to invade. Four biological replicate transwells were prepared for invasion. […] These invasive cells were then analyzed by western blot, matrigel invasion assay, and immunofluorescence for E-cadherin levels with and without TSA treatments. […]
Compounds of the present invention restore E-cadherin protein to the surface of selected aggressive colon and lung cancer cells. […] The kinetics of altered E-cadherin expression in SW620inv cells was determined by quantitative Western blot, using the Odyssey imaging system. […]
Referring to FIG. 2B and FIG. 2C, concentration dependent changes in E-cadherin expression following 24 hours of Compound 13 (259Y) treatment as determined by quantitative in cell Western (ICW) are shown.

[3] = Clearance in human microsomes; assay type: in vitro ADME
Experimental: (§1) The potency and efficacy of Compound 13 was evaluated in vivo. For these studies, the pharmacokinetics of Compound 13 were first evaluated in vitro and in vivo (FIG. 14).

[4] = test system: E-cadherin expression in H520 cells; assay: E-cadherin expression, in-cell Western (ICW), H520 cells; assay type: cell-based; conditions: Homo sapiens, NCI-H520
Experimental: SW620 and H520 cells (5×10^4/100 μL) were seeded in a 96-well plate prior to treatment. Cells were treated with 10 μM concentration of synthesized compound in quadruplicate for 24 hours in RPMI 1640 supplemented medium and 100 μg/mL penicillin-streptomycin. The cells were then fixed with 100% methanol for 20 minutes at 4° C. The wells were then washed 2 times with PBS, permeabilized in 2% bovine serum albumin (BSA) and 0.2% TritonX-100 in PBS for 30 minutes at room temperature with gentle agitation, and blocked in LI-COR blocking buffer for 30 minutes at room temperature with gentle agitation. The cells were then incubated with the following primary antibodies: anti-E-Cadherin (1:500) and anti-α-Tubulin (1:1000) diluted in blocking buffer (1:1 dilution in PBS) for 2 hours at room temperature with gentle agitation. The cells were washed 4 times in PBS-T for 5 minutes each, and then incubated with the following secondary antibodies conjugated to a fluorescent entity: IRDye 800-conjugated goat anti-rabbit IgG (1:1000) and IRDye-700-conjugated goat anti-mouse IgG (1:2000) in blocking buffer (1:1 dilution in PBS) with gentle agitation for 1 h at room temperature. The cells were washed 4 times in PBS-T for 5 minutes each followed by a single wash with PBS. All liquid was removed from the wells and the plates were visualized and analyzed on the Odyssey IR imaging system (LI-COR Biosciences).
The assay was further optimized in the following manner. The cells were washed 2 times with PBS, fixed in 100% methanol at room temperature for 15 minutes, and again washed 2 times with PBS. The cells were then incubated with the following primary antibodies: anti-E-Cadherin (1:200) and anti-α-Tubulin (1:2000) diluted in ice cold 2% bovine serum albumin (BSA) and 0.2% TritonX-100 in PBS for 1 hour at room temperature with gentle agitation. The cells were washed 2 times in PBS and then incubated with the following secondary antibodies conjugated to a fluorescent entity: Licor 800-conjugated goat anti-rabbit IgG (1:2000) and IRDye-700-conjugated goat anti-mouse IgG (1:2000) in ice cold 2% BSA and 0.2% TritonX-100 in PBS with gentle agitation for 45 minutes at room temperature. The wells were washed 2 times in PBS, dried, and analyzed as previously mentioned.
Changes in expression level of E-cadherin in response to 10 μM compound in H520 cells was determined in a cell-based functional assay as described above, and the data are shown in Table IV. The compound number corresponds to the compound numbers used in Table II.
EC50 of inducement of E-cadherin expression in H520 cells was determined in a cell-based functional assay as described above, and the data are shown in Table VI. The compound number corresponds to the compound numbers used in Table II.

[5] = IV pharmacokinetics in Sprague-Dawley rats; assay type: in vivo; conditions: IV dosing
Experimental: as §1

[6] = test system: E-cadherin protein in SW620inv cells; assay: Quantitative Western blot of E-cadherin protein, SW620inv time course; assay type: cell-based; conditions: maintained level, 12, 18 and 24 hour time-points

EC50 [2]: 2220 nM | clearance [3]: minimal | EC50 ([4]; inducement of E-cadherin expression in H520 cells): 1000 nM | clearance [5]: moderate | elimination half-life [5]: long | volume of distribution [5]: moderate
SMILES: O=C(NCCCNC(=O)c1cccnc1O)c1cc(-c2ccccc2)on1 [Compound 13, N-(3-(2-hydroxynicotinamido)propyl)-5-phenylisoxazole-3-carboxamide]
increase of E-cadherin specific mRNA [1]: 20 fold | fold induction at 10 µM ([4]; change in expression level of E-cadherin in response to 10 μM compound, 24 hours, H520 cells): 5.54 | E-cadherin protein levels relative to control vehicle treated cells [6]: > 10 ×
